Earlier results, collected in US12201720B2, “Pharmaceutical composition comprising GHB gastro-retentive raft forming systems having trigger pulse drug release” (Tris Pharma, Inc., priority 2017, dated 2025).
Read-outs that look alike come from different tables or passages of the source.

Settings: descriptive statement

O=C(O)CCCO [Sodium oxybate]
Solubility in water / aqueous solutions: very soluble | Solubility in water / aqueous solutions (listed as Sodium GHB): highly water-soluble
